Data from BindingDB's records for doi:10.1007/s10822-022-00478-x (Roche Innovation Center Basel, F. Hoffmann-La Roche Ltd., 2022).
pIC50: −log10 of the molar value.

Biological target: cAMP and cAMP-inhibited cGMP 3',5'-cyclic phosphodiesterase 10A (Homo sapiens, UniProt Q9Y233)
Assay: PDE10A assay
Procedure: Compounds were diluted in 20 mM HEPES/NaOH (pH 7.5), 10 mM MgCl2 and 0.05 mg/ml bovine serum albumin. A fixed amount of 2 ng/well human PDE10A enzyme was added and incubated at room temperature for 15 min under agitation. The reaction was started by the addition of the substrate cocktail [3H]cGMP (Perkin Elmer NET337001MC, S.A. 13.5 Ci/mmol) / cGMP at a final concentration of 50 nM and incubated for an additional 15 min. The reaction was stopped by the addition of 0.5 mg/well of Y-Si SPA beads. The plates were shaken for 1 h, followed by a brief centrifugation (170 g for 1 min). The radioactivity bound to the beads was estimated using a TopCount (Perkin-Elmer). For the determination of IC50 values, a four parameters logistics equation was used. pIC50 is defined as − log10(IC50).

Row | SMILES | pIC50
1 | CCOC(=O)c1cnn(C)c1C(=O)Nc1ccn2nc(-c3cccc(F)c3)nc2c1 [Roche-Dataset for PDE10A, Compound 175] | 7.34
2 | O=C1c2ccccc2C(=O)N1CCc1csc(-c2ccccc2)n1 [Roche-Dataset for PDE10A, Compound 177] | 5.60
3 | Cn1cc(-c2ccccc2)nc1/C=C/c1ccc2ccccc2n1 [Roche-Dataset for PDE10A, Compound 180] | 6.57
4 | O=C(NCCCc1noc(-c2ccccc2)n1)c1nc(C2CC2)cnc1Nc1cncnc1 [Roche-Dataset for PDE10A, Compound 181] | 6.31
5 | Cn1cc(-c2ccccc2)nc1CCNC(=O)c1cccn2cnnc12 [Roche-Dataset for PDE10A, Compound 182] | 6.41
6 | Cn1cnc(C(=O)N2CCC2)c1C(=O)Nc1ccn2nc(-c3ccccc3)nc2c1 [Roche-Dataset for PDE10A, Compound 183] | 7.68
7 | CN(CCF)C(=O)c1cnn(C)c1C(=O)N[C@@H]1CCn2cc(-c3ccccc3)nc2C1 [Roche-Dataset for PDE10A, Compound 190] | 6.69
8 | Cn1cc(-c2ccccc2)nc1COc1ncc(C2CC2)nc1C(=O)NCC1CC1 [Roche-Dataset for PDE10A, Compound 191] | 6.66
9 | Cn1ncc(C(=O)N2C[C@@H]3C[C@H]2CO3)c1C(=O)Nc1ccn2nc(N3CCOCC3)nc2c1 [Roche-Dataset for PDE10A, Compound 193] | 6.89
10 | COc1c(C)cnc(CCc2nc(-c3ccccc3)cn2C)c1C [Roche-Dataset for PDE10A, Compound 197] | 6.17
11 | COc1nc(OCc2nc(-c3ccccc3)cn2C)nc2ccc(Cl)cc12 [Roche-Dataset for PDE10A, Compound 198] | 7.82
12 | CNc1cc(C(=O)Nc2ccn3nc(-c4ccccc4)nc3c2)cc(Cl)n1 [Roche-Dataset for PDE10A, Compound 199] | 7.07
13 | CC(C)c1nnc2c(C(=O)NCCc3nc(-c4ccccc4)cn3C)cccn12 [Roche-Dataset for PDE10A, Compound 201] | 7.60
14 | CCN(CC)C(=O)c1cnn(C)c1C(=O)Nc1ccn2nc(N3CCOCC3)nc2c1 [Roche-Dataset for PDE10A, Compound 203] | 7.66
15 | CC(C)c1ncc(Nc2ccon2)c(C(=O)N[C@@H]2CCN(c3ccc(Cl)cn3)C2)n1 [Roche-Dataset for PDE10A, Compound 212] | 6.63
16 | Cc1cnn2c(C)c(CCc3nc(N4CCCC4)nn3C)nc2c1C [Roche-Dataset for PDE10A, Compound 216] | 7.70
17 | Cn1ncc2c1C(=O)N(c1ccn3nc(-c4cccc(F)c4)nc3c1)C2=O [Roche-Dataset for PDE10A, Compound 217] | 7.29

Row | SMILES | pIC50
18 | CN(C)C(=O)c1cnn(C)c1C(=O)N[C@@H]1CCn2c(nc(-c3ccccc3)c2Cl)C1 [Roche-Dataset for PDE10A, Compound 221] | 7.52
19 | COc1cccc(-c2cn3c(n2)C[C@H](NC(=O)c2c(C(=O)N(C)C)cnn2C)CC3)c1 [Roche-Dataset for PDE10A, Compound 230] | 6.58
20 | Cn1cc(-c2ccccc2)nc1CCc1cccc(-c2ccccn2)n1 [Roche-Dataset for PDE10A, Compound 237] | 5.62
21 | CNC(=O)c1cc2[nH]c(-c3ccccc3)nc2cc1NC(=O)c1oc(CO)nc1C [Roche-Dataset for PDE10A, Compound 238] | 6.13
22 | COCc1cnn(C)c1C(=O)Nc1ccn2nc(-c3ccccc3)nc2c1 [Roche-Dataset for PDE10A, Compound 239] | 7.85
23 | Cc1cccc(-c2cn3c(n2)C[C@H](NC(=O)c2c(C(=O)N(C)C)cnn2C)CC3)c1 [Roche-Dataset for PDE10A, Compound 241] | 7.47
24 | CCN(C)C(=O)c1cnn(C)c1C(=O)N[C@@H]1CCn2cc(-c3ccccc3)nc2C1 [Roche-Dataset for PDE10A, Compound 242] | 7.82
25 | COc1c(C)cnc(/C=C/c2nc(-c3ccccc3)cn2C)c1C [Roche-Dataset for PDE10A, Compound 245] | 6.01
26 | CN(C(=O)c1cnn(C)c1C(=O)N[C@@H]1CCn2cc(-c3ccccc3)nc2C1)C1COC1 [Roche-Dataset for PDE10A, Compound 248] | 7.36
27 | COC[C@H]1CCCN1c1nc(CCc2nc3c(C)ncc(C)n3n2)n(C)n1 [Roche-Dataset for PDE10A, Compound 249] | 7.92
28 | Cn1nnc(C(=O)N2CCC2)c1C(=O)Nc1ccn2nc(-c3ccccc3)nc2c1 [Roche-Dataset for PDE10A, Compound 250] | 6.74
29 | CC(C)NC(=O)c1nc(C2CC2)cnc1OCc1nc(-c2ccccc2)cn1C [Roche-Dataset for PDE10A, Compound 252] | 5.97
30 | Cn1ncc(C(=O)N2CCC2)c1C(=O)N[C@@H]1CCn2cc(-c3ccccc3OC(F)(F)F)nc2C1 [Roche-Dataset for PDE10A, Compound 253] | 7.36
31 | CCn1nc(C)cc1C(=O)Nc1cc2nc(-c3ccccc3)[nH]c2cc1C(=O)NCCOC [Roche-Dataset for PDE10A, Compound 256] | 7.85
32 | CCN(CC)C(=O)c1c(C)noc1C(=O)Nc1ccn2nc(-c3ccccc3)nc2c1 [Roche-Dataset for PDE10A, Compound 258] | 5.51
33 | Cc1[nH]c(-c2cccnc2)nc1CCN1C(=O)c2ccccc2C1=O [Roche-Dataset for PDE10A, Compound 260] | 5.81
34 | CCOC(=O)c1cnn(C)c1C(=O)Nc1ccn2nc(-c3cccnc3F)nc2c1 [Roche-Dataset for PDE10A, Compound 264] | 6.74

Further compounds by rising pIC50, results first:

Row | pIC50 | SMILES
35 | 7.92 | CCOC(=O)c1cnn(C)c1C(=O)Nc1ccn2nc(-c3ccccc3OC)nc2c1 [Roche-Dataset for PDE10A, Compound 220]
36 | 7.96 | Cc1cncc(-c2nc3cc(NC(=O)c4c(C(=O)N5CCC5)cnn4C)ccn3n2)c1 [Roche-Dataset for PDE10A, Compound 219]
37 | 7.96 | Cn1cc(-c2ccccc2)nc1COc1nc(N2CCOCC2)c2ccccc2n1 [Roche-Dataset for PDE10A, Compound 240]
38 | 7.96 | Nc1ccc(C2CC2)nc1C(=O)Nc1cc2nc(-c3ccccc3)[nH]c2cc1C(=O)NC1COC1 [Roche-Dataset for PDE10A, Compound 243]
39 | 8.03 | Cc1nc2ccccc2nc1CCc1ncc(-c2ccccc2)[nH]1 [Roche-Dataset for PDE10A, Compound 254]
40 | 8.10 | CN(C(=O)c1cnn(C)c1C(=O)N[C@@H]1CCn2cc(-c3ccccc3OC(F)F)nc2C1)C1CC1 [Roche-Dataset for PDE10A, Compound 192]
41 | 8.16 | Cn1ncc(C(=O)N2CCC2)c1C(=O)N[C@@H]1CCn2c(nc(-c3ccccc3)c2Cl)C1 [Roche-Dataset for PDE10A, Compound 225]
42 | 8.16 | Cn1ncc(C(=O)N2CCC2)c1C(=O)Nc1ccn2nc(-c3ccnc(Cl)c3)nc2c1 [Roche-Dataset for PDE10A, Compound 218]
43 | 8.22 | Cn1ncc(C(=O)N2CCC2)c1C(=O)N[C@@H]1CCn2cc(-c3ccccc3OC(F)F)nc2C1 [Roche-Dataset for PDE10A, Compound 257]
44 | 8.33 | COc1cc(-c2nc3cc(NC(=O)c4c(C(=O)N5CCC5)cnn4C)ccn3n2)ccn1 [Roche-Dataset for PDE10A, Compound 185]
45 | 8.34 | Cn1ncc(C(=O)N2CCC2)c1C(=O)N[C@@H]1CCn2cc(-c3ccc(F)cc3)nc2C1 [Roche-Dataset for PDE10A, Compound 261]
46 | 8.45 | CCc1nc(C)c(C(=O)Nc2cc3nc(-c4ccccc4)[nH]c3cc2C(=O)NCC2(C)COC2)o1 [Roche-Dataset for PDE10A, Compound 178]
47 | 8.51 | Cc1oc(-c2ccccc2)nc1CCNC(=O)c1nc(C2CC2)cnc1Nc1cncnc1 [Roche-Dataset for PDE10A, Compound 202]
48 | 8.58 | Cn1ncc(C(=O)N2CCC2)c1C(=O)Nc1cc2nc(-c3ccccc3)nn2cn1 [Roche-Dataset for PDE10A, Compound 236]
49 | 8.66 | CCOc1ccccc1-c1cn2c(n1)C[C@H](NC(=O)c1c(C(=O)N3CCC3)cnn1C)CC2 [Roche-Dataset for PDE10A, Compound 251]
50 | 8.72 | Cc1cc(-c2nc3cc(NC(=O)c4c(C(=O)N5CCC5)cnn4C)ccn3n2)ccn1 [Roche-Dataset for PDE10A, Compound 234]
51 | 8.75 | Cn1ncc(C(=O)N2CCOCC2)c1C(=O)Nc1cn(-c2ccc3ccccc3n2)cn1 [Roche-Dataset for PDE10A, Compound 222]
52 | 8.78 | Cc1c(Cl)cc(C(F)F)c2nc(CCc3nc(N4CCCC4)nn3C)nn12 [Roche-Dataset for PDE10A, Compound 187]
53 | 8.96 | CN(C(=O)c1cnn(C)c1C(=O)Nc1ccn2nc(N3CCOCC3)nc2c1)C1CC1 [Roche-Dataset for PDE10A, Compound 207]
54 | 9.11 | Cn1ncc(C(=O)N2CCC2)c1C(=O)Nc1cc2nc(-c3ccccc3)nn2cc1F [Roche-Dataset for PDE10A, Compound 204]
55 | 9.16 | Cc1c(Cl)cc(OC(C)C)c2nc(CCc3nc(N4CCCC4)nn3C)nn12 [Roche-Dataset for PDE10A, Compound 223]
56 | 9.22 | CCOc1cc(Cl)c(C)n2nc(CCc3nc(N4CCCC4)nn3C)nc12 [Roche-Dataset for PDE10A, Compound 266]
57 | 9.27 | Cc1c(Cl)cc(OC(F)F)c2nc(CCc3nc(N4CCCC4)n(C)n3)nn12 [Roche-Dataset for PDE10A, Compound 206]
58 | 9.44 | CN(C)C(=O)c1cnn(C)c1C(=O)Nc1ccc2[nH]c(-c3ccccc3)nc2c1 [Roche-Dataset for PDE10A, Compound 195]
59 | 9.66 | CNC(=O)c1cn2cc(-c3ccccc3)nc2cc1NC(=O)c1nc(C2CC2)ccc1Nc1cncnc1 [Roche-Dataset for PDE10A, Compound 184]
